The test system of one data set is 3T3 host cells. As to the kind of experiment: T. cruzi assay, activity against 3T3 host cells. It counts as cell-based. As to conditions: reference compound set; IA = inactive at 16.4 μM. The method in brief: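 3T3 cells were seeded on collagen-coated plates, incubated 24 h at 37 °C, infected with T. cruzi at MOI 5:1, and washed free of extracellular parasites after a further 24 h. Following 48 h compound exposure, cells were fixed, stained with Hoechst 33342 and HCS CellMask Green, and imaged by high-content analysis.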

The subject of data set [1] is T. cruzi intracellular amastigotes. As to the kind of experiment: Intracellular anti-Trypanosoma cruzi image-based assay (amastigotes). The conditions noted are these: Trypanosoma cruzi; reference compound set; IA = inactive at 16.4 μM; read-out: IC50 T. cruzi intracellular amastigotes. Type of data set: cell-based.
A further data set can be described thus: in vitro. The conditions noted are these: human.
Data set [2] deals with L. donovani MHOM/IN/80/DD8 intracellular amastigotes. As to the kind of experiment: Leishmania donovani intracellular amastigote assay in THP-1 cells. Type of data set: cell-based. The conditions noted are these: Leishmania donovani, reference compound set, IA = inactive at 20 μM.
Data set [3] relates to Plasmodium falciparum 3D7 asexual blood stage. Description: microbe, parasite or virus in culture. As to conditions: 3D7, read-out: IC50 P. falciparum 3D7 ABS.
The test system of data set [4] is T. b. brucei 427 bloodstream trypanosomes. Description: T. b. brucei resazurin viability assay. It counts as cell-based, Trypanosoma brucei brucei. The conditions noted are these: Trypanosoma brucei; reference compound set; IA = inactive at 20 μM; read-out: IC50 T. brucei brucei trypomastigotes.
In data set [5] the test system is NF54-pfs16-LUC-GFP stage IV gametocytes. Description: Plasmodium falciparum late stage gametocyte (LSG) image-based assay. Type of data set: cell-based. The conditions noted are these: Plasmodium falciparum, NF54, read-out: percent inhibition at the top screening dose, P. falciparum NF54 LSG.

Where two headings read alike, the source gives them in different places. A value given as a limit tells only on which side of the number the result lay.

Turning to `CO[C@H]1/C=C/O[C@@]2(C)Oc3c(C)c(O)c4c(O)c(c(/C=N/N5CCN(C)CC5)c(O)c4c3C2=O)NC(=O)/C(C)=C\C=C\[C@H](C)[C@H](O)[C@@H](C)[C@@H](O)[C@@H](C)[C@H](OC(C)=O)[C@@H]1C` [Rifampin, reference compound], the IC50 is > 16.4 µM with 3T3 host cells; > 16.4 µM in data set [1]; > 20 µM in data set [2] (THP-1, read-out: IC50 L. donovani n = 1, first test); > 20 µM in data set [2] (THP-1, read-out: IC50 L. donovani n = 2, second test); 2.23 µM in data set [3]; > 20 µM in data set [4]. Moreover, the IC50 at 72 h in “in vitro” is > 20 µM. The inhibition at 20 µM in data set [5] was determined as 78%.

These data come from PMC5571359, “Screening the Medicines for Malaria Venture Pathogen Box across Multiple Pathogens Reclassifies Starting Points for Open-Source Drug Discovery” (Antimicrobial Agents and Chemotherapy, 2017).
